Consider 10 molecules from US6638910B2, “Compositions and methods for controlling plant pests” (priority 1997, dated 2003).

Like-named read-outs stand apart in the source and are kept apart here. Starred links: 1 amine or outer side, 2 acyl side, 3 side chain; linkers in the order of their positions; H or OH if unused. Positions of bridges follow the written chain, without caps; N, C: chain ends. Non-standard residues stand in square brackets, D forms with d. Residues, ends and D or L forms follow the SMILES beside them. X1 = CC(C)CCCCCCCCC[C@H](CC(=O)[*:1])O[*:2]

For orientation: LC50 means the concentration lethal to half of the exposed cells or organisms.

One data set has as its system Botrytis cinerea. In words: Greenhouse test, Gray Mold on Pepper. The format is in vivo.
For another data set, the system named is E. graminis. In words: Greenhouse test, Powdery Mildew on Wheat. The class given is in vivo, Erysiphe graminis f. sp. graminis.
In a further data set the test system is Saccharomyces cerevesiae. The following applies: Beeson et al. (1979) J. Antibiotics 32(8):828-833; cited from earlier work.
Data set [1] has as its system fungi including Penicillium chrysogenum. The following applies: Peypoux et al. (1978) Tetrahedron 34:1147-1152; cited from earlier work.
For a further data set, the system named is Plasmopara viticola. Nature of the data set: Greenhouse test, grape downy mildew. The following applies: Chardonnay grape.
A further data set relates to Phytophthora infestans. The class given is in vivo. The following applies: Tomato.
Another data set relates to Rhizoctonia solani. In words: Greenhouse test, Sheath Blight on Rice. The class given is in vivo.
Another data set deals with Pyricularia oryzae. The class given is in vivo. The following applies: Rice.
For data set [2], the system named is N2 strain of the nematode Caenorhabditis elegans. Nature of the data set: 96-well microplate nematicidal assay, score rating. The format is in vivo. The following applies: Table 16; score 1 (all dead or stunted) to 4 (no dead).
Data set [3] deals with pre-adult beet armyworms (Spodoptera exigua). In words: 96-well microplate insecticidal assay, score rating. The following applies: Table 16; score 1 (all dead or stunted) to 4 (no dead). The format is in vivo. On the procedure: (§1) Bacillus samples were grown in a Bacillus culture media. […] One day old streaked cultures were used to inoculate 250 mL baffled shake flasks. Flasks were shaken at 200 rpm at 29° C. for 5 days. To assay insecticidal activity, 35 mL of culture broth were centrifuged at 5,200 rpm for 20 minutes and the supernatant used in microassay described below. Assays were performed in 96-well microplates. […] To assay insecticidal activity, an agar substrate was prepared for the wells of the microplate according to Marrone et al. (1985), J. Econ. Entomol. 78: 290-293. […] Deionized water was used as a negative control. Two replicates of test sample or control were used for each assay. 40 μL of supernatant sample or whole broth grown in medium 1, 2 or 3 were dispensed into each sample well. Plates were then placed in a fume hood to dry for approximately 2-3 hours until the agar solution was dried. […] The microplate was sealed with an airtight substance such as Mylar®, and each well ventilated with a pin press. The plates were incubated at 27° C. for up to 7 days. After incubation, wells were scored by noting neonate mortality or the degree of larval development. […] Scores were averaged among replicates within each sample. […] It contained the same ingredients as medium 3 without proflo cotton seed extract. All other procedures were the same as above. The test was repeated two or three times.

For data set [4], the system named is pre-adult corn rootworms (Diabrotica undecimpunctata). Described as above. The format is in vivo. The following applies: Table 16; score 1 (all dead or stunted) to 4 (no dead). Here is the method:
as §1

Another data set deals with Uncinula necator. In words: Greenhouse test, Powdery Mildew on Grape. The format is in vivo.

Consider `CCCC1COC(Cn2cncn2)(c2ccc(Cl)cc2Cl)O1` (stereo not shown) [Propiconazole], for which the figures for the “percent disease control, B. cinerea” value with Botrytis cinerea (5 ppm) and in the data set on Botrytis cinerea (10 ppm) were 57% and 87%, respectively. In addition, the entries for the “percent disease control, E. graminis” value with E. graminis (0.2 ppm) and in the data set on E. graminis (0.5 ppm) were 54% and 100%, respectively.

iturin-A: the 50% lethal concentration (LC50) in the data set on Saccharomyces cerevesiae was 30 µg/mL.

On to Iturin-C, for which, in data set [1], the activity against fungi result is “inactive”.

Take mycosubtilin: the 50% lethal concentration (LC50) in the data set on Saccharomyces cerevesiae was 10 µg/mL.

Turning to bacillomycin L, the 50% lethal concentration (LC50) with Saccharomyces cerevesiae is 30 µg/mL.

For the molecule `COCC(=O)N(c1c(C)cccc1C)C(C)C(=O)OC` (stereo not shown) [Metalaxyl], the values for the percent disease control in the data set on Plasmopara viticola (1 ppm), in the data set with Plasmopara viticola (10 ppm) and in the data set on Plasmopara viticola (30 ppm) were 80% control, 98.3% control and 100% control, respectively. Moreover, the “percent disease control, P. infestans” value is given as 77% in the data set on Phytophthora infestans (10 ppm) and 100% in the data set with Phytophthora infestans (30 ppm).

Regarding `CCCCNC(=O)n1c(NC(=O)OC)nc2ccccc21` [Benomyl], the “percent disease control, R. solani” value in the data set on Rhizoctonia solani (40 ppm) is given as 77%; with Rhizoctonia solani (100 ppm), 100%.

Consider `O=C(Nc1ccccc1)N(Cc1ccc(Cl)cc1)C1CCCC1` [Pencycuron], for which the “percent disease control, P. oryzae” value in the data set on Pyricularia oryzae (10 ppm) and in the data set with Pyricularia oryzae (50 ppm) was 100% throughout.

With `CC(C)CCCCCCCCC[C@@H]1CC(=O)N[C@@H](CCC(=O)O)C(=O)N[C@@H](CC(C)C)C(=O)N[C@H](CC(C)C)C(=O)N[C@@H](C(C)C)C(=O)N[C@@H](CC(=O)O)C(=O)N[C@H](CC(C)C)C(=O)N[C@@H](CC(C)C)C(=O)O1` [Surfactin] (EL[dL]VD[dL]L; linker N-C via X1), in data set [2], the “Activity score, C. Elegans” value was 4.0. Further, the “Activity score, Beet armyworm” value in [3] amounted to 4.0. The “Activity score, Corn rootworm” value in [4] was 2.0.

For the molecule `CCCCC(C#N)(Cn1cncn1)c1ccc(Cl)cc1` (stereo not shown) [Myclobutanil], the “percent disease control, U. necator” value in the data set on Uncinula necator (10 ppm) and with Uncinula necator (30 ppm) was 100% throughout.
